From article PMC11035696, “Prospective de novo drug design with deep interactome learning” (Nature Communications, 2024)
Entries after “also recorded” stand apart in the source; their conditions may differ.

What was measured:
ANDROGEN RECEPTOR = ANDROGEN RECEPTOR (Homo sapiens, UniProt P10275); assay: Safety off-target panel, binding; details: single point
Text: (§1) Table S9-S12 list all targets, their species, inhibition (%) and assay type for the experiments conducted in the
(§2) off-targets. […] The numbers for mean
(§3) inhibition (%) represent single point measurements.
(§4) off-targets. […] The numbers for
(§5) mean inhibition (%) represent single point measurements.

DOPAMINE D1 RECEPTOR = DOPAMINE D1 RECEPTOR (Homo sapiens, UniProt P21728); assay: Safety off-target panel, binding; details: single point
Text: as §1, §2, §3, §4, §5

ADENOSINE A1 RECEPTOR = ADENOSINE A1 RECEPTOR (Homo sapiens, UniProt P30542); assay: Safety off-target panel, binding; details: single point
Text: as §1, §2, §3, §4, §5

5HT2A = 5HT2A (Homo sapiens, UniProt P28223); assay: Safety off-target panel, binding; details: single point
Sequence of 5HT2A (P28223 whole entry): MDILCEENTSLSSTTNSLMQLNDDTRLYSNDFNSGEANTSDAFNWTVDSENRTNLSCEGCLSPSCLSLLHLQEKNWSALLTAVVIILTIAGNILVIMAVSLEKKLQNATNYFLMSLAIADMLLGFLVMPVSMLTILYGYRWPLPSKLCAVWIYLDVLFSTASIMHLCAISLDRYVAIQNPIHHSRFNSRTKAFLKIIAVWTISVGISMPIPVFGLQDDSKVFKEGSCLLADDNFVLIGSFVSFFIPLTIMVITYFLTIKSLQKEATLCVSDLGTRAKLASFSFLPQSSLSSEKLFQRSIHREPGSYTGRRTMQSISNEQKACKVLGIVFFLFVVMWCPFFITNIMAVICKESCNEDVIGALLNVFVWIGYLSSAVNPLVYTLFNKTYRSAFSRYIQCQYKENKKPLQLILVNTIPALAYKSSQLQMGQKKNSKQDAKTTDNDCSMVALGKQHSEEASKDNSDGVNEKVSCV
Text: as §1, §2, §3, §4, §5

κ OPIOID RECEPTOR = κ OPIOID RECEPTOR (Homo sapiens, UniProt P41145); assay: Safety off-target panel, binding; details: single point
Text: as §1, §2, §3, §4, §5

CANNABINOID RECEPTOR CB1 = CANNABINOID RECEPTOR CB1 (Homo sapiens, UniProt P21554); assay: Safety off-target panel, binding; details: single point
Text: as §1, §2, §3, §4, §5

5HT2B = 5HT2B (Homo sapiens, UniProt P41595); assay: Safety off-target panel, binding; details: single point
Sequence of 5HT2B (P41595 whole entry): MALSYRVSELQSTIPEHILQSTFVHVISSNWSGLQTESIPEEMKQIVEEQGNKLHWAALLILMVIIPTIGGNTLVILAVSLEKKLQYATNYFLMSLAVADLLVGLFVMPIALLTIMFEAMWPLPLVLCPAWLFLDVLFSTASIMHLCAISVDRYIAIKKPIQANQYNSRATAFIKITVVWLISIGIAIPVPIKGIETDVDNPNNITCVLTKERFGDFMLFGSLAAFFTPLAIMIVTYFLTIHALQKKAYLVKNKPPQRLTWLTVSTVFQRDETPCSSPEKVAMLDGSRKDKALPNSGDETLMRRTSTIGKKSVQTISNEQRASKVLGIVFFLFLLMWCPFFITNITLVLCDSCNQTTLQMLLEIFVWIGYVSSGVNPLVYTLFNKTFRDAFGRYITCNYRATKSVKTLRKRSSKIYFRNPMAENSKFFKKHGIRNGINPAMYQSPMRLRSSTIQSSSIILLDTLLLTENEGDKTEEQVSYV
Text: as §1, §2, §3, §4, §5

[1] = target: DOPAMINE D2 RECEPTOR (short) (Homo sapiens, UniProt P14416); assay: Safety off-target panel, binding; details: single point
Sequence of DOPAMINE D2 RECEPTOR (short) (P14416 1-414 isoform P14416-2): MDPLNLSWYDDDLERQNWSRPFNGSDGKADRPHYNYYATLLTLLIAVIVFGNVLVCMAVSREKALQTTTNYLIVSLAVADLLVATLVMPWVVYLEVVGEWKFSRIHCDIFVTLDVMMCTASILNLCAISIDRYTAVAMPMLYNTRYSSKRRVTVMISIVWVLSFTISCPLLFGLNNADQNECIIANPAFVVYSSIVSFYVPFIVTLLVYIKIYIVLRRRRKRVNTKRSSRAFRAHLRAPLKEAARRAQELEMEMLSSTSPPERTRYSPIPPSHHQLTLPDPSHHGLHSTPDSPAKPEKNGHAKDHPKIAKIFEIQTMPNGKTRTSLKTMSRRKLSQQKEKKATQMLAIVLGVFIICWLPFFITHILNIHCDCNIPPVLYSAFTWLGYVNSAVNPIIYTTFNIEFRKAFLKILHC
Text: as §1, §2, §3, §4, §5

PROSTAGLANDIN F RECEPTOR = PROSTAGLANDIN F RECEPTOR (Homo sapiens, UniProt P43088); assay: Safety off-target panel, binding; details: single point
Sequence of UniProt P43088 (P43088 whole entry): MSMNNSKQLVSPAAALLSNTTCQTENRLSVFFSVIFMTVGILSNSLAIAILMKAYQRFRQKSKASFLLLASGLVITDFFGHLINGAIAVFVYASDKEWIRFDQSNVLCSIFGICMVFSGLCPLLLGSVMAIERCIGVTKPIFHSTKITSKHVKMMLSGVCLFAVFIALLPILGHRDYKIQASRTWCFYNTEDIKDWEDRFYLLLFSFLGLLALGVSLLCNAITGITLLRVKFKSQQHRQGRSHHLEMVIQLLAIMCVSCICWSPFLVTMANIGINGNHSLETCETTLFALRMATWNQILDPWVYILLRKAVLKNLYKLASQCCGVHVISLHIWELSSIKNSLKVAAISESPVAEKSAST
Text: as §1, §2, §3, §4, §5

PPARγ = PPARγ (Homo sapiens, UniProt P37231); assay: Safety off-target panel, binding; details: single point
Text: as §1, §2, §3, §4, §5

HISTAMINE H3 RECEPTOR = HISTAMINE H3 RECEPTOR (Homo sapiens, UniProt Q9Y5N1); assay: Safety off-target panel, binding; details: single point
Text: as §1, §2, §3, §4, §5

[2] = target: NOREPINEPHRINE TRANSPORTER (Homo sapiens, UniProt P23975); assay: Safety off-target panel, binding; details: single point
Text: as §1, §2, §3, §4, §5

HISTAMINE H2 RECEPTOR = HISTAMINE H2 RECEPTOR (Homo sapiens, UniProt P25021); assay: Safety off-target panel, binding; details: single point
Text: as §1, §2, §3, §4, §5

µ OPIOID RECEPTOR = µ OPIOID RECEPTOR (Homo sapiens, UniProt P35372); assay: Safety off-target panel, binding; details: single point
Sequence of µ OPIOID RECEPTOR (P35372 whole entry): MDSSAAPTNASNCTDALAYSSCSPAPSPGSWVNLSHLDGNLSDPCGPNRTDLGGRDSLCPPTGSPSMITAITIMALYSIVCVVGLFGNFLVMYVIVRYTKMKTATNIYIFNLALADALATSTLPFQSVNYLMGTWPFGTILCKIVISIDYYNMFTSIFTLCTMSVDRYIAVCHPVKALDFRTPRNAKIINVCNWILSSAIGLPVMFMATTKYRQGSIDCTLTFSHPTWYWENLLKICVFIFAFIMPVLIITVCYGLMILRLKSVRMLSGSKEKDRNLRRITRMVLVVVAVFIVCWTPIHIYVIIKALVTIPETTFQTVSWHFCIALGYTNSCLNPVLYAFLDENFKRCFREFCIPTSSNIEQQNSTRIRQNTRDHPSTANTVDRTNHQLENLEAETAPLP
Text: as §1, §2, §3, §4, §5

GLUCOCORTICOID RECEPTOR = GLUCOCORTICOID RECEPTOR (Homo sapiens, UniProt P04150); assay: Safety off-target panel, binding; details: single point
Sequence of UniProt P04150 (P04150 whole entry): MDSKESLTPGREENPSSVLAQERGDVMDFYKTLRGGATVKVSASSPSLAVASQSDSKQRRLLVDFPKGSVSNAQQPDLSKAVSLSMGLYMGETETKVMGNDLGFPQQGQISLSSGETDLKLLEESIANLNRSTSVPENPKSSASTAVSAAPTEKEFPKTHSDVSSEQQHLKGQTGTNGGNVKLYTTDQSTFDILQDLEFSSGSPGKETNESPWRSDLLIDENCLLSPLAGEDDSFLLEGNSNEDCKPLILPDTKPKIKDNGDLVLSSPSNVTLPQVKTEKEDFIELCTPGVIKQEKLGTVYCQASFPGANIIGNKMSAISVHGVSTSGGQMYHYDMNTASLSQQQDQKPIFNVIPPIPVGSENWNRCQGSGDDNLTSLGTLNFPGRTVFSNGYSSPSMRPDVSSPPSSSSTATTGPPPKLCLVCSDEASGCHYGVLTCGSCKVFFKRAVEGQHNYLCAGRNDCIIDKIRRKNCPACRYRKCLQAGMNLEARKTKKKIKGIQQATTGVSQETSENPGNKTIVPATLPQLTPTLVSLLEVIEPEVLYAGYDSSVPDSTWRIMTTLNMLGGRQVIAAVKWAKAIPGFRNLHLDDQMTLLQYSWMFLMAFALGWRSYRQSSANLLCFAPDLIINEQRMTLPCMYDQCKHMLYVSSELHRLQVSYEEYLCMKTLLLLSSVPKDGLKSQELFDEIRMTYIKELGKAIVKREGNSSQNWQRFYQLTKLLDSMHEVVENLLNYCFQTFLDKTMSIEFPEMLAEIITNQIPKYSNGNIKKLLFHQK
Text: as §1, §2, §3, §4, §5

MUSCARINIC RECEPTOR M1 = MUSCARINIC RECEPTOR M1 (Homo sapiens, UniProt P11229); assay: Safety off-target panel, binding; details: single point
Sequence of MUSCARINIC RECEPTOR M1 (P11229 whole entry): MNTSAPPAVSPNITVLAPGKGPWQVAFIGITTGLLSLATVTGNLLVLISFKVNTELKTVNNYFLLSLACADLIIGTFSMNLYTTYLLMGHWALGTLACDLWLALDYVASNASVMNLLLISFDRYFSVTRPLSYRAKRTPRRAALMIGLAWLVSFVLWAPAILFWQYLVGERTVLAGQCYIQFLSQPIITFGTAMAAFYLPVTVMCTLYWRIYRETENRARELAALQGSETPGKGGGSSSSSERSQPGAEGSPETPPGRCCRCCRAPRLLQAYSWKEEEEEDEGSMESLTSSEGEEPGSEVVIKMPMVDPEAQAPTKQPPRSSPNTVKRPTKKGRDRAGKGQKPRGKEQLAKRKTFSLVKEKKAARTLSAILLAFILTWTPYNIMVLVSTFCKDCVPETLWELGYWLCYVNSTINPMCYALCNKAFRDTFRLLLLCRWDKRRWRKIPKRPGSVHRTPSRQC
Text: as §1, §2, §3, §4, §5

[3] = target: ANGIOTENSIN II RECEPTOR 1 (Homo sapiens, UniProt P30556); assay: Safety off-target panel, binding; details: single point
Text: as §1, §2, §3, §4, §5

[4] = target: GLYCINE RECEPTOR, STRYCHNINE INSENSITIVE (Rattus norvegicus, UniProt P35439); assay: Safety off-target panel, binding; details: read-out: Mean inhibition (%)
Sequence of GLYCINE RECEPTOR, STRYCHNINE INSENSITIVE (P35439 394-800): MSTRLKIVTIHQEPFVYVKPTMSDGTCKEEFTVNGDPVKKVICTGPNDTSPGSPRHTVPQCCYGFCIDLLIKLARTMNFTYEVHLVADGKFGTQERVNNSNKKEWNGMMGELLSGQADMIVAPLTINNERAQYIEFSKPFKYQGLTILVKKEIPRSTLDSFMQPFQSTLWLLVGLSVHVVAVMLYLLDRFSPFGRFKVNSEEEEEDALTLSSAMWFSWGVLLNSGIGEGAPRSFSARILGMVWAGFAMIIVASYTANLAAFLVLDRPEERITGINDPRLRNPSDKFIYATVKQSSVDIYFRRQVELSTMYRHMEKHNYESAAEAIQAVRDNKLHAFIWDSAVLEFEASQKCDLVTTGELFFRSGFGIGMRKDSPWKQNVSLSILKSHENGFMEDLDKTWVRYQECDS
Text: as §1, §2, §3, §4, §5

MUSCARINIC RECEPTOR M2 = MUSCARINIC RECEPTOR M2 (Homo sapiens, UniProt P08172); assay: Safety off-target panel, binding; details: single point
Text: as §1, §2, §3, §4, §5

ESTROGEN RECEPTOR α = ESTROGEN RECEPTOR α (Homo sapiens, UniProt P03372); assay: Safety off-target panel, binding; details: single point
Sequence of ESTROGEN RECEPTOR α (P03372 whole entry): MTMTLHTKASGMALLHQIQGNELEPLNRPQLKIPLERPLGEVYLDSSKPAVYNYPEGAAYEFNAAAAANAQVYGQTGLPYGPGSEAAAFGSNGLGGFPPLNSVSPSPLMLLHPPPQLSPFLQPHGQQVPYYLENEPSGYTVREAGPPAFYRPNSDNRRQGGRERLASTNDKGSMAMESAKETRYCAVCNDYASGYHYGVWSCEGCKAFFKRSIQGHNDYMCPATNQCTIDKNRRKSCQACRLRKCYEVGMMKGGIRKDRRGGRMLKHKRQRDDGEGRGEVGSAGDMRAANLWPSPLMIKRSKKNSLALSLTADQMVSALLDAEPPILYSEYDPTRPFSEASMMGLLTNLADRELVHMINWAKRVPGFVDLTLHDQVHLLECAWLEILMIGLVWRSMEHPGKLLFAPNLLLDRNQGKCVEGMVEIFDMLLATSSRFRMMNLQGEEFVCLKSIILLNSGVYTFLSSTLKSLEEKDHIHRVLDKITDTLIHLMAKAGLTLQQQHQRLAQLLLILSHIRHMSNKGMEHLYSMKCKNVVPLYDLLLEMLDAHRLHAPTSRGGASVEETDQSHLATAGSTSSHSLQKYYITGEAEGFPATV
Text: as §1, §2, §3, §4, §5

5HT1A = 5HT1A (Homo sapiens, UniProt P08908); assay: Safety off-target panel, binding; details: single point
Sequence of 5HT1A (P08908 whole entry): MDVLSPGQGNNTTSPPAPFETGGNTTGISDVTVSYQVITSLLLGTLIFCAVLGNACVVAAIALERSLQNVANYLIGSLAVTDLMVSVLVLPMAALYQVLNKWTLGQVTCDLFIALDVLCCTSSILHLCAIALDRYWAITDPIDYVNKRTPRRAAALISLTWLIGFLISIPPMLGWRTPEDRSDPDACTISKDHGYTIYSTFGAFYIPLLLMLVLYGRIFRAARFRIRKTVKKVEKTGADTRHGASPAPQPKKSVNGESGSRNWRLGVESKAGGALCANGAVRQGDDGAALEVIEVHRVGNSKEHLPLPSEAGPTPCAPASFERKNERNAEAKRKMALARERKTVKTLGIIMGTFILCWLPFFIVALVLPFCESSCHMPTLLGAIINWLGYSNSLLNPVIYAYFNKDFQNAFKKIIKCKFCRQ
Text: as §1, §2, §3, §4, §5

ADENOSINE A3 RECEPTOR = ADENOSINE A3 RECEPTOR (Homo sapiens, UniProt P0DMS8); assay: Safety off-target panel, binding; details: single point
Text: as §1, §2, §3, §4, §5

[5] = target: CHOLECYSTOKININ 1 RECEPTOR (Homo sapiens, UniProt P32238); assay: Safety off-target panel, binding; details: single point
Text: as §1, §2, §3, §4, §5

alpha1A-ADRENOCEPTOR = alpha1A-ADRENOCEPTOR (Homo sapiens, UniProt P35348); assay: Safety off-target panel, binding; details: single point
Text: as §1, §2, §3, §4, §5

SEROTONIN TRANSPORTER = SEROTONIN TRANSPORTER (Homo sapiens, UniProt P31645); assay: Safety off-target panel, binding; details: single point
Text: as §1, §2, §3, §4, §5

5HT3 = 5HT3 (Homo sapiens, UniProt P46098); assay: Safety off-target panel, binding; details: single point
Text: as §1, §2, §3, §4, §5

β1-ADRENOCEPTOR = β1-ADRENOCEPTOR (Homo sapiens, UniProt P08588); assay: Safety off-target panel, binding; details: single point
Text: as §1, §2, §3, §4, §5

[6] = target: NICOTINIC RECEPTOR, MUSCLE (Homo sapiens, UniProt P02708+P07510+P11230+Q07001); assay: Safety off-target panel, binding; details: single point
Text: as §1, §2, §3, §4, §5

HEK293T cells = assay: Cytotoxicity assay on HEK293T cells (Celltiter-glo); assay type: cell-based, human; details: 16 h and 24 h, 0.05–20 μM, range of cell numbers, result in words
Method: HEK293T cells were seeded at the indicated number per well in DMEM-high glucose, complemented with glutamax, pen-strep, and 10% FBS, in a total of 40 μl of medium. The cells were incubated overnight at 37 °C. Compounds were added to the cells at the indicated concentrations, resulting in a final Dimethylsulfoxid (DMSO) concentration of 0.2%. The compounds were incubated on the cells for either 16 h or 24 h. At the specified time point, the medium was carefully removed from the vessel, leaving only 2 μl in the wells. Celltiter-glo (CTG) reagent (G7572, Promega) was prepared according to the manufacturer’s instructions. Plates with cells were equilibrated at room temperature for 30 min. Subsequently, 25 μl of CTG reagent was added to the cells. The plates were then shaken for 2 min and incubated for an additional 15 min at room temperature. Luminescence was read afterward with BG Pherastar.

| Structure (SMILES) | inhibition at 10 µM (ANDROGEN RECEPTOR) | inhibition at 10 µM (DOPAMINE D1 RECEPTOR) | inhibition at 10 µM (ADENOSINE A1 RECEPTOR) | inhibition at 10 µM (5HT2A) | inhibition at 10 µM (κ OPIOID RECEPTOR) | inhibition at 10 µM (CANNABINOID RECEPTOR CB1) | inhibition at 10 µM (5HT2B) | inhibition at 10 µM [1] | inhibition at 10 µM (PROSTAGLANDIN F RECEPTOR) | inhibition at 10 µM (PPARγ) | inhibition at 10 µM (HISTAMINE H3 RECEPTOR) | inhibition at 10 µM [2] | inhibition at 10 µM (HISTAMINE H2 RECEPTOR) | inhibition at 10 µM (µ OPIOID RECEPTOR) | inhibition at 10 µM (GLUCOCORTICOID RECEPTOR) | inhibition at 10 µM (MUSCARINIC RECEPTOR M1) | inhibition at 10 µM [3] | inhibition at 10 µM [4] | inhibition at 10 µM (MUSCARINIC RECEPTOR M2) | inhibition at 10 µM (ESTROGEN RECEPTOR α) | further results |
| --- | --- | --- | --- | --- | --- | --- | --- | --- | --- | --- | --- | --- | --- | --- | --- | --- | --- | --- | --- | --- | --- |
| COc1ccc(Oc2ccc3ncn(CCOc4ccc(CCC(=O)O)cc4)c3c2)cc1 [Compound 2] | 3.1% | -5.7% | -3.6% | -8.8% | -0.7% | -3.2% | 7.1% | -6.8% | 4.6% | 89.6% | 2.1% | 0.7% | -3.1% | 6.2% | -2.1% | -0.2% | -6.2% | -8.3% | 6.9% | -1.8% | inhibition at 10 µM (5HT1A): 22.7%; inhibition at 10 µM (ADENOSINE A3 RECEPTOR): 17.1%; inhibition at 10 µM [5]: 7.6%; inhibition at 10 µM (alpha1A-ADRENOCEPTOR): 2.9%; inhibition at 10 µM (SEROTONIN TRANSPORTER): 6.4%; inhibition at 10 µM (5HT3): 0.3%; inhibition at 10 µM (β1-ADRENOCEPTOR): 6.9%; inhibition at 10 µM [6]: 0.9%; cytotoxicity on HEK293T cells (HEK293T cells): did not indicate any cytotoxicity; also recorded: No cytotoxic effects |
| Cc1nnc(-c2ccc(OCCCOc3ccc(CCC(=O)O)c(F)c3)c(F)c2)s1 [Compound 1] | -1.6% | -3.3% | 9.4% | -3.3% | 10.9% | 9.3% | 6.6% | -1.9% | 0% | 95% | 4.9% | -3.3% | 10.9% | -6.9% | -3.8% | 8.4% | -7.5% | 2.3% | 4.2% | 13.6% | inhibition at 10 µM (5HT1A): -20.6%; inhibition at 10 µM (ADENOSINE A3 RECEPTOR): 9%; inhibition at 10 µM [5]: 1.2%; inhibition at 10 µM (alpha1A-ADRENOCEPTOR): 1.7%; inhibition at 10 µM (SEROTONIN TRANSPORTER): 6.9%; inhibition at 10 µM (5HT3): -4.7%; inhibition at 10 µM (β1-ADRENOCEPTOR): 0.7%; inhibition at 10 µM [6]: -3.7%; cytotoxicity on HEK293T cells (HEK293T cells): did not indicate any cytotoxicity; also recorded: No cytotoxic effects |
